# Like-named read-outs stand apart in the source and are kept apart here.
# Experiments:
# [1] = system: IL2 production in PHA-stimulated mouse spleen cells; experiment: suppression of IL2 production in PHA-stimulated mouse spleen cells; type: cell-based; conditions: for inhibition at 0.01 µg/mL / inhibition at 0.1 µg/mL / inhibition at 1 µg/mL / inhibition at 10 µg/mL: Mus musculus, 24 h, read-out: Suppression
# Description: Culture of PHA-stimulated mouse spleen cells was carried out as follows: PHA (1/100 dilution) was added to the BALB/c mouse spleen cells suspension prepared in the same way as in Experimental Example 4. The cell suspension (1 ml) and 1 ml of the test substance were added to 24-well multidishes, and cultured at 37° C. in an atmosphere of 5% carbon dioxide for 24 hours. After termination of the culture, the supernatant was collected and used as the supernatant of PHA-stimulated cultures.
# The IL2 activity in the supernatants of mouse allogenic MLC and the supernatants of PHA-stimulated mouse spleen cells culture was assayed as follows: IL2-dependent mouse cell line CTLL-2 cells were suspended in the RPMI1640 culture medium supplemented with 30% FCS to the concentration of 10^5 cells/ml, and 100 μl of the suspension was added to each well of 96-well microculture plates in which 100 μl of the supernatant of the MLC described above had been placed. After culturing at 37° C. in an atmosphere of 5% carbon dioxide for 20 hours, 0.5 μCi/well of ^3 H-thymidine was added, and incubated for 4 hours under the same conditions. After termination of the culture, the cells were harvested by a cell harvester, and the radioactivity incorporated into the cells was measured by a liquid scintillation counter. IL2 activity was expressed in U/ml as the titer at various concentrations at which the ^3 H-thymidine incorporation was 50% of the maximum.
# [2] = system: interleukin 2 receptor (IL-2R, Tac) expression in mouse allogenic MLC; experiment: suppression of induction of IL-2R (Tac) expression in mouse allogenic MLC; type: cell-based
# Description: Mouse allogenic MLC and PHA-stimulated mouse spleen cells were prepared in the same as in Experimental Example 3.
# The IL-2R (Tac) induced in mouse allogenic MLC and PHA-stimulated mouse spleen cells was assayed as follows:
# After culturing the mouse allogenic MLC and the PHA-stimulated mouse spleen cells at 37° C. in an atmosphere of 5% carbon dioxide for 24 hours, the cells were collected by centrifugation (1000 rpm, 5 minutes, 4° C.), and about 10^6 cells were cultured in 10 μl of phosphate buffered saline (PBS), to which 0.02% sodium azide-containing rat anti-mouse IL-2R monoclonal antibody (manufactured by Boehringer Co., 40 μg/ml) had been added, for 30 minutes with ice-cooling. After washing three times with ice-cooled PBS containing 0.02% sodium azide, 50 μl of fluorescein isothiocyanate (FITC)-labeled goat anti-rat immunoglobulin G antibody was added and cultured for 30 minutes with ice-cooling. To the cell pellet after washing three times with ice-cooled 0.02% sodium azide-added PBS was added, a few drops of PBS containing 0.2% sodium azide and 50% glycerin. Prepared specimens on non-fluorescent slide glasses were made and the IL-2R positive cells were counted under a fluorescent microscope to determine the ratio of numbers of IL-2R positive cells in the total numbers of the cells.
# [3] = system: IL3-dependent mouse cell line FDC-P2; experiment: suppression of IL3-induced proliferation of FDC-P2; type: cell-based; conditions: for inhibition at 0.001 µg/mL / inhibition at 0.01 µg/mL / inhibition at 0.1 µg/mL / inhibition at 1 µg/mL / inhibition at 10 µg/mL: Mus musculus, 24 h
# Description: IL3-dependent mouse cell line FDC-P2 cells were suspended in the RPMI1640 culture medium supplemented with 10% FCS to the concentration of 2×10^5 cells/ml. One hundred μl of the suspension and 50 μl of the supernatant of the culture of mouse luekemia cells WEHI3 containing IL3 were added to each well of 96-well microculture plates in which 100 μl of the test substance had been placed. After culturing at 37° C. in an atmosphere of 5% carbon dioxide for 20 hours, 0.5 μCi/well of ^3 H-thymidine was added, and cultured for 4 hours under the same conditions. After termination of the culture, the cells were harvested by a cell harvester, and the radioactivity incorporated into the cells was determined by a liquid scintillation counter, and was used as an index of the IL3-dependent proliferation.
# [4] = system: allo-reactive cytotoxic T cells (EL4 target cells); experiment: suppression of allo-reactive cytotoxic T cells induced by immunization of mouse with allogenic cells; type: in vivo; conditions: 0.1 mg/kg/day i.p., 6 times
# Description: Male BALB/c mice were immunized with spleen cells of C57BL/6 mice (5×10^7 cells/mouse, intraperitoneal administration), and ISP-I in Example 1 was administered intraperitoneally 6 times at the doses of 0.1 mg/kg/day from the next day of immunization. Eight days after immunization, the spleen was resected to prepare effector cells, with which the ^51 Cr release test was carried out as in Experimental Example 3, using EL4 cells as the target cells to measure the cytotoxic activity.
# [5] = system: KATOIII; experiment: in vitro; type: cell-based, human
# [6] = cytotoxicity to tumor cell line PC-6; type: cell-based, human; conditions: human, pc-6 cells, read-out: Suppression
# Description: (§1) Cytotoxicity to human tumor cell lines was examined as follows:
# (§2) Cells of human cell lines, K562, MOLT4, U937, HL60, KATOIII, KB, PC-6, PC-14 and CCRF-CEM were separately suspended to the concentration of 2×10^5 cells/ml in the RPMI1640 culture medium supplemented with 20% FCS. Fifty μl of this suspension was added to each well of 96-well microculture plates to which 50 μl of the test solution had been added. After culturing at 37° C. in an atmosphere of 5% carbon dioxide for 72 hours, the absorbancy at 550 nm was measured in the same way as the colorimetry using MTT in Experimental Example 1, and the percent suppression was calculated in the same manner as in Experimental Example 14, which was used as the index of cytotoxicity.
# [7] = system: PC-6; experiment: cytotoxicity to tumor cell line PC-6; type: cell-based, human
# Description: as §1, §2
smiles,measurement,setting,value
CCCCCCC(=O)CCCCCC/C=C/CC(O)C(O)C(N)(CO)C(=O)O (stereo not drawn) [Example 1],IL2 activity,[1]; 0.01 μg/ml,6.5 U/ml
same,IL2 activity,[1]; 0.1 μg/ml,2.5 U/ml
same,IL2 activity,[1]; 1 μg/ml,1.1 U/ml
same,IL2 activity,[1]; 10 μg/ml,< 1 U/ml
same,inhibition at 0.01 µg/mL,[1],46.3%
same,inhibition at 0.1 µg/mL,[1],79.3%
same,inhibition at 1 µg/mL,[1],90.9%
same,inhibition at 10 µg/mL,[1],> 92%
same,IL-2R positive cells,[2]; 0.001 μg/ml,22.4%
same,IL-2R positive cells,[2]; 0.01 μg/ml,17.6%
same,IL-2R positive cells,[2]; 0.1 μg/ml,13.1%
same,IL-2R positive cells,[2]; 1 μg/ml,11.4%
same,inhibition at 0.001 µg/mL,"[2]; Mus musculus, 24 h, 0.001 μg/ml",8.2%
same,inhibition at 0.01 µg/mL,"[2]; Mus musculus, 24 h, 0.01 μg/ml",27.9%
same,inhibition at 0.1 µg/mL,"[2]; Mus musculus, 24 h, 0.1 μg/ml",44.3%
same,inhibition at 1 µg/mL,"[2]; Mus musculus, 24 h, 1 μg/ml",53.3%
same,3H-thymidine uptake,[3]; 0.001 μg/ml,6858 cpm
same,3H-thymidine uptake,[3]; 0.01 μg/ml,6572 cpm
same,3H-thymidine uptake,[3]; 0.1 μg/ml,5203 cpm
same,3H-thymidine uptake,[3]; 1 μg/ml,5029 cpm
same,3H-thymidine uptake,[3]; 10 μg/ml,2750 cpm
same,inhibition at 0.001 µg/mL,[3]; 0.001 μg/ml,21.5%
same,inhibition at 0.01 µg/mL,[3]; 0.01 μg/ml,25.7%
same,inhibition at 0.1 µg/mL,[3]; 0.1 μg/ml,45.9%
same,inhibition at 1 µg/mL,[3]; 1 μg/ml,48.5%
same,inhibition at 10 µg/mL,[3]; 10 μg/ml,82.1%
same,Amount of 51Cr release,[4]; effector:target 25:1,1046 cpm
same,Cytotoxic activity,[4]; effector:target 25:1,5%
same,Amount of 51Cr release,[4]; effector:target 50:1,1258 cpm
same,Cytotoxic activity,[4]; effector:target 50:1,8%
same,Amount of 51Cr release,[4]; effector:target 100:1,1543 cpm
same,Cytotoxic activity,[4]; effector:target 100:1,13%
same,Absorbancy,[5]; 0.01 μg/ml,0.990
same,Absorbancy,[5]; 0.1 μg/ml,0.972
same,Absorbancy,[5]; 1.0 μg/ml,0.961
same,Absorbancy,[5]; 10.0 μg/ml,0.869
same,Absorbancy,[5]; 100.0 μg/ml,0.041
same,cytotoxicity at 72 h,[6]; 0.1 μg/ml,9.9%
same,cytotoxicity at 72 h,[6]; 1.0 μg/ml,23.2%
same,cytotoxicity at 72 h,[6]; 100.0 μg/ml,100%
same,Absorbancy,[7]; 0.01 μg/ml,0.244
same,Absorbancy,[7]; 0.1 μg/ml,0.245
same,Absorbancy,[7]; 1.0 μg/ml,0.209
same,Absorbancy,[7]; 10.0 μg/ml,0.202
same,Absorbancy,[7]; 100.0 μg/ml,0.000
CCCCCCC(=O)CCCCCC/C=C/CC1OC(=O)C(N)(CO)C1O (stereo not drawn) [Example 4],IL2 activity,[1]; 0.01 μg/ml,4.9 U/ml
same,IL2 activity,[1]; 0.1 μg/ml,2.6 U/ml
same,IL2 activity,[1]; 1 μg/ml,< 1 U/ml
same,IL2 activity,[1]; 10 μg/ml,< 1 U/ml
same,inhibition at 0.01 µg/mL,[1]; 0.01 μg/ml,59.5%
same,inhibition at 0.1 µg/mL,[1]; 0.1 μg/ml,78.5%
same,inhibition at 1 µg/mL,[1]; 1 μg/ml,> 92%
same,inhibition at 10 µg/mL,[1]; 10 μg/ml,> 92%
same,3H-thymidine uptake,[3]; 0.001 μg/ml,7754 cpm
same,3H-thymidine uptake,[3]; 0.01 μg/ml,6557 cpm
same,3H-thymidine uptake,[3]; 0.1 μg/ml,5861 cpm
same,3H-thymidine uptake,[3]; 1 μg/ml,4922 cpm
same,3H-thymidine uptake,[3]; 10 μg/ml,2902 cpm
same,inhibition at 0.001 µg/mL,[3]; 0.001 μg/ml,8.3%
same,inhibition at 0.01 µg/mL,[3]; 0.01 μg/ml,25.9%
same,inhibition at 0.1 µg/mL,[3]; 0.1 μg/ml,36.2%
same,inhibition at 1 µg/mL,[3]; 1 μg/ml,50.1%
same,inhibition at 10 µg/mL,[3]; 10 μg/ml,79.9%
same,Absorbancy,[5]; 0.1 μg/ml,0.407
same,Absorbancy,[5]; 1.0 μg/ml,0.401
same,Absorbancy,[5]; 10.0 μg/ml,0.319
same,Absorbancy,[5]; 100.0 μg/ml,0.009
same,cytotoxicity at 72 h,[6]; 0.1 μg/ml,15.1%
same,cytotoxicity at 72 h,[6]; 1.0 μg/ml,6.2%
same,cytotoxicity at 72 h,[6]; 10.0 μg/ml,6.9%
same,cytotoxicity at 72 h,[6]; 100.0 μg/ml,95.2%
same,Absorbancy,[7]; 0.1 μg/ml,0.247
same,Absorbancy,[7]; 1.0 μg/ml,0.273
same,Absorbancy,[7]; 10.0 μg/ml,0.271
same,Absorbancy,[7]; 100.0 μg/ml,0.014

# Reference: patent US5219884A, “Immunosuppressant” (Taito Co., Ltd., priority 1990, dated 1993)
